Legend:
TK-10 = assay: NCI 60 cell line five dose, Renal Cancer
UO-31 = assay: NCI 60 cell line five dose, Renal Cancer
T-47D = assay: NCI 60 cell line five dose, Breast Cancer
OVCAR-3 = assay: NCI 60 cell line five dose, Ovarian Cancer
OVCAR-4 = assay: NCI 60 cell line five dose, Ovarian Cancer
OVCAR-8 = assay: NCI 60 cell line five dose, Ovarian Cancer
HOP-92 = assay: NCI 60 cell line five dose, Non-Small Cell Lung Cancer
NCI-H226 = assay: as above
NCI-H23 = assay: as above
NCI-H322M = assay: as above
NCI-H460 = assay: as above

## C=C1C(=O)O[C@H]2[C@H]1CC/C(COC(=O)NCCCCNC(=O)OC/C1=C/CC[C@@]3(C)O[C@H]3[C@H]3OC(=O)C(=C)[C@@H]3CC1)=C\CC[C@@]1(C)O[C@@H]21 [JVM 3-54, bis(((1aR,7aS,10aS,10bS,E)-1a-Methyl-8-methylene-9-oxo-1a,2,3,6,7,7a,8,9,10a,10b-decahydrooxireno[2′,3′:9,10]cyclodeca[1,2-b]furan-5-yl)methyl)butane-1,4-diyldicarbamate]
TK-10; Log10 Concentration −5.0
  Percent Growth: −47%
TK-10; Log10 Concentration −6.0
  Percent Growth: 75%
TK-10; Log10 Concentration −7.0
  Percent Growth: 93%
TK-10; Log10 Concentration −8.0
  Percent Growth: 97%
TK-10; read-out: LC50
  CC50: 11.3 µM
UO-31
  GI50: 7.61 µM
  TGI: 20.9 µM
UO-31; Log10 Concentration −4.0
  Percent Growth: −95%
UO-31; Log10 Concentration −5.0
  Percent Growth: 45%
UO-31; Log10 Concentration −6.0
  Percent Growth: 88%
UO-31; Log10 Concentration −7.0
  Percent Growth: 84%
UO-31; Log10 Concentration −8.0
  Percent Growth: 86%
UO-31; read-out: LC50
  CC50: 47.7 µM
T-47D
  GI50: 1.51 µM
  TGI: 4.17 µM
T-47D; Log10 Concentration −4.0
  Percent Growth: −32%
T-47D; Log10 Concentration −5.0
  Percent Growth: −43%
T-47D; Log10 Concentration −6.0
  Percent Growth: 70%
T-47D; Log10 Concentration −7.0
  Percent Growth: 93%
T-47D; Log10 Concentration −8.0
  Percent Growth: 95%
T-47D; read-out: LC50
  CC50: > 100 µM
OVCAR-3
  GI50: 0.693 µM
  TGI: 2.01 µM
OVCAR-3; Log10 Concentration −4.0
  Percent Growth: −96%
OVCAR-3; Log10 Concentration −5.0
  Percent Growth: −93%
OVCAR-3; Log10 Concentration −6.0
  Percent Growth: 40%
OVCAR-3; Log10 Concentration −7.0
  Percent Growth: 101%
OVCAR-3; Log10 Concentration −8.0
  Percent Growth: 101%
OVCAR-3; read-out: LC50
  CC50: 4.76 µM
OVCAR-4
  GI50: 1.77 µM
OVCAR-4; Log10 Concentration −4.0
  Percent Growth: −98%
OVCAR-4; Log10 Concentration −5.0
  Percent Growth: −5%
OVCAR-4; Log10 Concentration −6.0
  Percent Growth: 68%
OVCAR-4; Log10 Concentration −7.0
  Percent Growth: 82%
OVCAR-4; Log10 Concentration −8.0
  Percent Growth: 93%
OVCAR-4; read-out: LC50
  CC50: 30.5 µM
OVCAR-8
  GI50: 2.18 µM
  TGI: 8.26 µM
OVCAR-8; Log10 Concentration −4.0
  Percent Growth: −78%
OVCAR-8; Log10 Concentration −5.0
  Percent Growth: −7%
OVCAR-8; Log10 Concentration −6.0
  Percent Growth: 79%
OVCAR-8; Log10 Concentration −7.0
  Percent Growth: 99%
OVCAR-8; Log10 Concentration −8.0
  Percent Growth: 99%
OVCAR-8; read-out: LC50
  CC50: 40.2 µM
HOP-92
  GI50: 0.287 µM
  TGI: 1.06 µM
HOP-92; Log10 Concentration −4.0
  Percent Growth: −92%
HOP-92; Log10 Concentration −5.0
  Percent Growth: −76%
HOP-92; Log10 Concentration −6.0
  Percent Growth: 2%
HOP-92; Log10 Concentration −7.0
  Percent Growth: 91%
HOP-92; Log10 Concentration −8.0
  Percent Growth: 91%
NCI-H226
  GI50: 11.4 µM
  TGI: 30.5 µM
NCI-H226; Log10 Concentration −4.0
  Percent Growth: −60%
NCI-H226; Log10 Concentration −5.0
  Percent Growth: 57%
NCI-H226; Log10 Concentration −6.0
  Percent Growth: 100%
NCI-H226; Log10 Concentration −7.0
  Percent Growth: 97%
NCI-H226; Log10 Concentration −8.0
  Percent Growth: 98%
NCI-H226; read-out: LC50
  CC50: 81.6 µM
NCI-H23
  GI50: 2.18 µM
  TGI: 5.54 µM
NCI-H23; Log10 Concentration −4.0
  Percent Growth: −70%
NCI-H23; Log10 Concentration −5.0
  Percent Growth: 32%
NCI-H23; Log10 Concentration −6.0
  Percent Growth: 92%
NCI-H23; Log10 Concentration −7.0
  Percent Growth: 95%
NCI-H23; Log10 Concentration −8.0
  Percent Growth: 95%
NCI-H23; read-out: LC50
  CC50: 30.4 µM
NCI-H322M
  GI50: 12.6 µM
  TGI: 25.8 µM
NCI-H322M; Log10 Concentration −4.0
  Percent Growth: −94%
NCI-H322M; Log10 Concentration −5.0
  Percent Growth: 66%
NCI-H322M; Log10 Concentration −6.0
  Percent Growth: 104%
NCI-H322M; Log10 Concentration −7.0
  Percent Growth: 100%
NCI-H322M; Log10 Concentration −8.0
  Percent Growth: 100%
NCI-H322M; read-out: LC50
  CC50: 52.9 µM
NCI-H460
  GI50: 4.61 µM
  TGI: 18 µM
NCI-H460; Log10 Concentration −4.0
  Percent Growth: −71%
NCI-H460; Log10 Concentration −5.0
  Percent Growth: 24%
NCI-H460; Log10 Concentration −6.0
  Percent Growth: 101%
NCI-H460; Log10 Concentration −7.0
  Percent Growth: 103%
NCI-H460; Log10 Concentration −8.0
  Percent Growth: 102%
NCI-H460; read-out: LC50
  CC50: 60.7 µM

Source: patent US10118935B2, “Melampomagnolide B dimers” (priority 2014, dated 2018)
